Data reported in patent publication US20060147898A1, “Cell microchip” (NITTO DENKO CORPORATION, priority 2003, published 2006).

Tested on: rat breast cancer cell MTF7
Assay: Action of 5ALA on MTF7 cells in the cell microchip (fluorescence and growth after Ar ion laser irradiation)
Format: cell-based
Description: The cell microchip prepared in Example 1 was used to examine the action of […] (5ALA) on rat breast cancer cell MTF7 according to a method described in Journal of Japan Society for Laser Surgery and Medicine, Vol. 17, No. 1, pp. 1-10 (1996).
MTF7 was provided by Dr. Stephan P. Tomasovic, M. D. Anderson Cancer Center, […], US. MTF7 was proliferated in an a-MEM medium (Sigma Corporation) supplemented with 10% fetal calf serum (FCS) in an incubator for cell culture (37° C. in 5% CO2 under humidity).
The cell microchip (FIG. 4) prepared in Example 1 was placed in a 90 mmf Petri dish, and the flow channel (A) 33, flow channel (B) 34 and flow channel (C) 35 were filled with the above medium. […]
Then the cell microchip wherein the MTF7 cells had been proliferated was removed from the Petri dish, and the above medium was injected via a micro pump into the liquid reservoir 37 of the flow channel (A) 33, and while the above medium containing 5ALA manufactured by Sigma Corporation) at various concentrations (25, 50, 100, 200 and 400 mg/ml) was injected into the liquid reservoir 37 of the flow channel (B) 34, the cells were observed under a fluorescence microscope equipped with the incubator. […] The cells into which the 5ALA-containing medium had not been injected emitted no fluorescence.

For `NCC(=O)CCC(=O)O` [5ALA, d-aminolevulinic acid], the “emission of fluorescence under a fluorescence microscope” value (MTF7 cells at 3-pronged junction, medium containing 5ALA at 25, 50, 100, 200 and 400 mg/ml, irradiated with Ar ion laser at 488 nm, 200 mW) was “emission of fluorescence was observed” and the “cell growth / survival on continued culture after laser irradiation” value (MTF7 cells emitting fluorescence (5ALA-containing medium), observed with time under a microscope after Ar ion laser irradiation at 488 nm) was “terminated their growth and fell eventually into death”.
